Source: patent publication US7858657B2 (Proix Pharmaceutical Corp., priority 2004, dated 2010)
Marks after values point to notes of the source that are not given here.

Legend:
[1] = Pharmacokinetics of PX-866 in mouse plasma; type: in vivo; details: intravenous, intraperitoneal and oral administration; mouse plasma (FIG. 2)
OvCaR-3 ovarian [2] = assay: Antitumor activity of wortmannin analogs, OvCaR-3 ovarian tumor (Table 1); type: in vivo; details: initial tumor vol 120 mm^3, 8 mg/kg/day ip Q1D × 9
HT-29 colon [3] = assay: Antitumor activity of wortmannin analogs, HT-29 colon tumor (Table 1); type: in vivo; details: initial tumor vol 170 mm^3, 12 mg/kg/day ip Q1D × 9
A-549 lung = assay: Antitumor activity of wortmannin analogs, A-549 lung tumor (Table 1); type: in vivo
Panc-1 pancreatic = assay: Antitumor activity of cytotoxic drugs alone or combined with PX-866, Panc-1 pancreatic (Table 2); type: in vivo; details: for Alone Growth delay days / Alone TGI % / Alone log cell kill: size 75 mm^3
OvCaR-3 ovarian [4] = assay: Antitumor activity of cytotoxic drugs alone or combined with PX-866, OvCar-3 ovarian (Table 2); type: in vivo; details: for Alone Growth delay days / Alone TGI % / Alone log cell kill: size 110 mm^3
HT-29 colon [5] = assay: Antitumor activity of cytotoxic drugs alone or combined with PX-866, HT-29 colon (Table 2); type: in vivo; details: for Alone Growth delay days / Alone TGI % / Alone log cell kill: size 150 mm^3
p110α/p85α = biological target: T1, p110α/p85α (Bos taurus, UniProt P32871); assay: Inhibition of recombinant PtdIns-3-kinase, [32P]-ATP dependent phosphorylation of PtdIns; type: biochemical, bovine; details: recombinant enzyme; read-out: IC50, PtdIns-3-kinase p110α/p85α
T1 construct: purchased Upstate (Charlottesville, Va.)
Text: (§1) Materials and Methods. Compounds. […] Rabbit purified anti-phosphoSer473-Akt antibody, anti-Akt antibody, antiphospho Tyr1086-EGF-receptor antibody and anti-EGFR antibody were obtained from Cell Signaling Technology (Beverly, Mass.). Human recombinant p110α/p85α, p110β/p85α, p120 (and p110*/p85α PtdIns-3-kinases were obtained from Upstate (Charlottesville, Va.). Metformin hydrochloride was obtained from Spectrum Chemical (Gardena, Calif.), pioglitazone hydrochloride and recombinant human insulin from Sigma Chemical (St. Louis).
(§2) Measurement of PtdIns-3-kinase.

p110β/p85α = biological target: T2, p110β/p85α (Homo sapiens, UniProt P42338); assay: as above; type: biochemical; details: recombinant enzyme
T2 construct: purchased Upstate (Charlottesville, Va.)
Text: as §1, §2

p110δ/p85α = biological target: T3, p110δ/p85α (Homo sapiens, UniProt O00329); assay: as above; type: biochemical; details: recombinant enzyme
T3 construct: purchased Upstate (Charlottesville, Va.)
Text: as §1, §2

p120γ = biological target: T4, p120γ (Homo sapiens, UniProt P48736); assay: as above; type: biochemical; details: recombinant enzyme
T4 construct: purchased Upstate (Charlottesville, Va.)
Text: as §1, §2

[6] = tested on: phospho-Akt in A-549 cells; assay: cells; type: cell-based; details: Homo sapiens, A549; A-549 cells in media containing 10% fbs; read-out: IC50, inhibition of phospho-Akt
Experimental: (§3) Cells. […] All cell lines were tested to be mycoplasma free using a PCR ELISA kit (Roche Diagnostics Inc., Indianapolis, Ind.).
as §2

A-549 cells = type: cell-based, human; details: PX-866 at concentrations up to 100 nM
Experimental: as §3

[7] = Plasma insulin levels after PX-866; type: in vivo, C57B1/6 mice; details: PX-866 single dose of 10 mg/kg po (FIG. 10)
Text: PX-866 and glucose tolerance.

mouse bone marrow = assay: Bone marrow colony formation from treated mice; type: in vivo; details: C57B1/6 mice, PX-866 3 mg/kg po every other day for 15 doses
Experimental: Bone Marrow Colony Formation. After sacrifice, mouse bone marrow was extracted from each femur and red blood cells lysed with 0.2% hypotonic NaCl followed by the addition of a 1.6% hypertonic NaCl. Approximately 20,000 cells were plated in 1 ml of Methocult™ GF M3434 (Stemcell Technologies Inc, Vancouver, BC, Canada) containing 1% methylcellulose in […], 15% fbs, 1% bovine serum albumin, 10:g/ml recombinant human insulin, 200:g/ml humantransferrin, […] β-mercaptoethanol, 2 mM L-glutamine, 50 ng/ml rm stem cell factor, 10 ng/ml recombinant mouse interleukin-3, 10 ng/ml recombinant human interleukin-6, and 3 units/ml recombinant erythropoietin. Cells were plated in triplicate and grown at 37/C and 5% CO2 in a humid environment for 14 days before scoring. Colonies (>40 cells/colony) or clusters (3-40 cells) were scored and growth of colony-forming unit granulocyte, erythroid, macrophage, megakaryocyte (CFU-GEMM; burst-forming units-erythroid (BFU-E), colony-forming units granulocyte macrophage (CFU-GM), assessed using standard criteria. Qualitative observations were made on background levels of single cells.

[8] = Glucose tolerance studies; details: mean ± SE of 4 mice
Experimental: Glucose Tolerance Studies. Female C5781/6 mice were fasted overnight and administered a single dose of D(+) glucose (1 mg/kg) as a 0.1 g/ml solution po. […] Human recombinant insulin was administered at 0.075:g/kg ip (26) at the same time as glucose administration.
Values are the mean±SE of 4 mice per group.

[9] = initial tumor vol 60 mm^3, 4 mg/kg/day po Q1D × 9
[10] = initial tumor vol 60 mm^3, 12 mg/kg/day iv Q1D × 9
[11] = initial tumor vol 65 mm^3, 6 mg/kg/day ip Q1D × 9
[12] = initial tumor vol 65 mm^3, 9 mg/kg/day ip Q1D × 9
[13] = PX-866 iv 15 mg/kg Q3D × 3 combined with gemcitabine ip 150 mg/kg Q3D × 3
[14] = PX-866 po 5 mg/kg Q3D × 3 combined with gemcitabine ip 150 mg/kg Q3D × 3
[15] = PX-866 iv 12 mg/kg Q2D × 5 combined with taxol ip 12 mg/kg Q2D × 5
[16] = PX-866 po 4 mg/kg Q2D × 5 combined with taxol ip 12 mg/kg Q2D × 5
[17] = PX-866 iv 10 mg/kg Q2D × 3 combined with cisplatin ip 2.5 mg/kg Q2D × 3
[18] = PX-866 po 2.5 mg/kg Q2D × 3 combined with cisplatin ip 2.5 mg/kg Q2D × 3

T1 sequence (P32871 whole entry): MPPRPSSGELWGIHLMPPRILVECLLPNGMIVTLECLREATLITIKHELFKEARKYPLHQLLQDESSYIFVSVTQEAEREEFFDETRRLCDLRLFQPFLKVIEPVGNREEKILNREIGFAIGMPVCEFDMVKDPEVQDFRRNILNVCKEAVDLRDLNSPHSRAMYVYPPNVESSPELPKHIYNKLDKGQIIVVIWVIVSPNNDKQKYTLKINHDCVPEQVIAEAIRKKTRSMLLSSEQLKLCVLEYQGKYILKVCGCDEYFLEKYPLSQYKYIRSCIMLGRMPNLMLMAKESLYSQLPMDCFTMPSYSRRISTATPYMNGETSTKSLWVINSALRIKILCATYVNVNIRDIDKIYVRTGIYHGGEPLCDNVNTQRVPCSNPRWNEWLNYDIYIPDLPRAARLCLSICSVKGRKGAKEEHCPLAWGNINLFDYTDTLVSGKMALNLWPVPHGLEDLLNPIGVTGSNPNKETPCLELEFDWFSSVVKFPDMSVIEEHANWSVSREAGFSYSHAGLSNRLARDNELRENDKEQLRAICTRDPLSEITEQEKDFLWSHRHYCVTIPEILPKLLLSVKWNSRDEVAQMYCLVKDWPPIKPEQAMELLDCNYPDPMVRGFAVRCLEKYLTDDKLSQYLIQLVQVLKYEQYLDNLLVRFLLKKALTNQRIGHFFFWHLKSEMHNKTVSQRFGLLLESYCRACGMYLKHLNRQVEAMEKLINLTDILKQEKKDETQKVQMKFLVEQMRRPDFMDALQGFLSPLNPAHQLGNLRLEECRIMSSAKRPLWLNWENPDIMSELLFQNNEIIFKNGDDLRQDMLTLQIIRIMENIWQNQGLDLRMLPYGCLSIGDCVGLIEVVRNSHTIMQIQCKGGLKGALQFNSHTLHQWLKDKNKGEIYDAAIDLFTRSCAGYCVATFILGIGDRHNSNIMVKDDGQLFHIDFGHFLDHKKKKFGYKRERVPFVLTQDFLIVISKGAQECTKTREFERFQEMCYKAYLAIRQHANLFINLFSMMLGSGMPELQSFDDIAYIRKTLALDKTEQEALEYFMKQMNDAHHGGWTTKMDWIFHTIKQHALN
T1 sequence (P23727 2-724 partner): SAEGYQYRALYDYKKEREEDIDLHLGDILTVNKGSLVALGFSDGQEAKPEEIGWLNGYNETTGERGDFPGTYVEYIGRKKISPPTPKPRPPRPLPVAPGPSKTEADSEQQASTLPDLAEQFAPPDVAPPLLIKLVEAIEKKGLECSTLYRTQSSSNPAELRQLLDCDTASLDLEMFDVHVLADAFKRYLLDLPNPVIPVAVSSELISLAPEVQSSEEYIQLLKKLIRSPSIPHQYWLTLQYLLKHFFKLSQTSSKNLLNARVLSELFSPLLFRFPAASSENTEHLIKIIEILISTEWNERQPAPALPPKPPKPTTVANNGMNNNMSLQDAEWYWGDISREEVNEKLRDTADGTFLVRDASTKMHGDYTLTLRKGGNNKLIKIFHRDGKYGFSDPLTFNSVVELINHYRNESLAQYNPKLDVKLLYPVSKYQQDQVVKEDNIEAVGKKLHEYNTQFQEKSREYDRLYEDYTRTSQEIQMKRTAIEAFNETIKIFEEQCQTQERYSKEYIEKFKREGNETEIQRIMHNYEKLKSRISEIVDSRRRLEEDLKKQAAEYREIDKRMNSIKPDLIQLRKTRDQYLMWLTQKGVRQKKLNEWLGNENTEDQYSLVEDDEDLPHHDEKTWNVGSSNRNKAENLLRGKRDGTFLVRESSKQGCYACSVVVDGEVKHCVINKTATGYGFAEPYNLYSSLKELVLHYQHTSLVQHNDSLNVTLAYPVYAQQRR
T3 sequence (O00329 whole entry): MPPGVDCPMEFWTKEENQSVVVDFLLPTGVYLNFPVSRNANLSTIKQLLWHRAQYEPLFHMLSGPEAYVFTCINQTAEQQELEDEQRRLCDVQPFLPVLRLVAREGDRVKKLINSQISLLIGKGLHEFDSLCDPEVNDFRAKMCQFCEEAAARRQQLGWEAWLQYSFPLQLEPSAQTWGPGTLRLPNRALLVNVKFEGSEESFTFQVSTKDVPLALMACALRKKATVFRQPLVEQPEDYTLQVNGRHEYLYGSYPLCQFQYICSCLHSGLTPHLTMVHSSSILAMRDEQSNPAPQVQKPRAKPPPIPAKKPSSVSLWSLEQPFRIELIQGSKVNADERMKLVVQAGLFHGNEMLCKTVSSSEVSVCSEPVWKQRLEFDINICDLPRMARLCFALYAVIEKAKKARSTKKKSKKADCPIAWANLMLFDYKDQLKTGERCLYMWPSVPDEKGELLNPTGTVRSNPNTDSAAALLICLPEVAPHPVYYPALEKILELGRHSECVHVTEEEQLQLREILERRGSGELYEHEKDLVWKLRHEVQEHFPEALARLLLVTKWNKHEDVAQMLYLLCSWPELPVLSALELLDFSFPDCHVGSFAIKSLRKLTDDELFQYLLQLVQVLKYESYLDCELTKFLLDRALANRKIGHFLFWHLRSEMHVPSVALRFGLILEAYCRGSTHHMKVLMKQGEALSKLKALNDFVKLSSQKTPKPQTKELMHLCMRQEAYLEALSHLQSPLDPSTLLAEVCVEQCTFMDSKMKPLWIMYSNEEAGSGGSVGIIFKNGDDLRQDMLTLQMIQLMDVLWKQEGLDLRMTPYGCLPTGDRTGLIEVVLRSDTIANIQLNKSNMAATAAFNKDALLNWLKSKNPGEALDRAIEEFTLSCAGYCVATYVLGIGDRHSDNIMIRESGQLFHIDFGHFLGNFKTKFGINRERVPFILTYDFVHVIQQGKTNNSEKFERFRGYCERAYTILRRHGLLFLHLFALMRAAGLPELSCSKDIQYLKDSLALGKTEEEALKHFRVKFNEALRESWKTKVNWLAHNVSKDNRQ
T3 sequence (P27986 whole entry partner): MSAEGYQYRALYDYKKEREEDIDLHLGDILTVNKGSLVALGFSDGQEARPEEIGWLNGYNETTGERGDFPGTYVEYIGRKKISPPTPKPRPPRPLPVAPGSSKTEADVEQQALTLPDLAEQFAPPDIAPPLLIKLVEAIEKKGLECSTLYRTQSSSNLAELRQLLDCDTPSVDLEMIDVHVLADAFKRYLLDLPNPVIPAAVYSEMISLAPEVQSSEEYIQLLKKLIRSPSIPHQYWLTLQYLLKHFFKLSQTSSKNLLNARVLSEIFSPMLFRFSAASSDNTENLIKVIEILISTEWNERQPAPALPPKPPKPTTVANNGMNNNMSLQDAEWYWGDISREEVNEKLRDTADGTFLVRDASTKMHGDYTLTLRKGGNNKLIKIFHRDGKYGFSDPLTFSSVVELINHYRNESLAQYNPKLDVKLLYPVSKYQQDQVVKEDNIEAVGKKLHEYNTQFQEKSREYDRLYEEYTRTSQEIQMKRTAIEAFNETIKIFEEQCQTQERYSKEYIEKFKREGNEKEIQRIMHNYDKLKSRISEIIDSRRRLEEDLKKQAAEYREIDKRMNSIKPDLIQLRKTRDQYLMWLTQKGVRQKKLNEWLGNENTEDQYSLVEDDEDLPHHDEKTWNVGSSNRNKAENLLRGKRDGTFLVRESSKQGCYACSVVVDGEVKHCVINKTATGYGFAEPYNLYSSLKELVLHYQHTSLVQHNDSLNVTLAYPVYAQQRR
T4 sequence (P48736 whole entry): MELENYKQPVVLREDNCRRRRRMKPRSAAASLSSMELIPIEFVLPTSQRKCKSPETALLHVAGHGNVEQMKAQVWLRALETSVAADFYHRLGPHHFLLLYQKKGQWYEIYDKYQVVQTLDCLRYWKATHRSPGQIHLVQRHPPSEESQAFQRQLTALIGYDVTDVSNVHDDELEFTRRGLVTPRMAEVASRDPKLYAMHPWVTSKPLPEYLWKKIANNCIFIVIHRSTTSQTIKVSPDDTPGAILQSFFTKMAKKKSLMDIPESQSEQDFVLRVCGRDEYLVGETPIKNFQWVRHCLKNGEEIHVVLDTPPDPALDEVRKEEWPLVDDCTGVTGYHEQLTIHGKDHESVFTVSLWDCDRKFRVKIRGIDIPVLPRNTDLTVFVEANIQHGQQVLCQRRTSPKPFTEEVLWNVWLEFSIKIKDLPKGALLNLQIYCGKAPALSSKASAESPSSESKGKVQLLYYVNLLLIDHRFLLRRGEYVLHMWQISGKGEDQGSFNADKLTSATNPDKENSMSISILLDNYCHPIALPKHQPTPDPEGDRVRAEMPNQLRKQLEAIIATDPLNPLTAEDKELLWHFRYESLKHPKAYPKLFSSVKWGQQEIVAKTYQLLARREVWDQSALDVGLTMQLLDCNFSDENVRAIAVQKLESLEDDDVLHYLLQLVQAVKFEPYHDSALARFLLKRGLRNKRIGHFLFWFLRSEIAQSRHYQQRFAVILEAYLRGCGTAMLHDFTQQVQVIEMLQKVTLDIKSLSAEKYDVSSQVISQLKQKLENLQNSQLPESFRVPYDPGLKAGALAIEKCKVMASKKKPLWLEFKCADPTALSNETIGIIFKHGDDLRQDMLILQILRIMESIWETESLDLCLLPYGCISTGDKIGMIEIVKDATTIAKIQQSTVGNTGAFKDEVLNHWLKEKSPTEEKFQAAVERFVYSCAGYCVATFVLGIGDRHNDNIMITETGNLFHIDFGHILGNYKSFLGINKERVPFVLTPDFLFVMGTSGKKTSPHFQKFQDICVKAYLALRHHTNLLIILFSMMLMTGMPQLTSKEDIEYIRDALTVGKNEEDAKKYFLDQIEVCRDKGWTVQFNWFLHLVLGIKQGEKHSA

For `C=CCN(/C=C1/C(=O)O[C@H](COC)[C@@]2(C)C1=C(O)C(=O)C1=C2[C@H](OC(C)=O)C[C@]2(C)C(=O)CC[C@@H]12)CC=C` [PX-866], which half-life [1] is on record?
The half-life was about 16 h.

What about the “Growth Delay” value (OvCaR-3 ovarian [2]) of the same molecule?
Its value is 12 days.

And the Log10 cell kill (OvCaR-3 ovarian [2])?
The Log10 cell kill was 1.2.

What about the “T/C % (optimal test/control)” value (OvCaR-3 ovarian [2]; day 40) of the same molecule?
The value was 30 (40) %.

And the “Growth Delay” value (HT-29 colon [3])?
Its value is 6 days.

What about the Log10 cell kill (HT-29 colon [3]) of the same molecule?
Its Log10 cell kill is 0.4.

And the “T/C % (optimal test/control)” value (HT-29 colon [3]; day 16)?
Its value is 39 (16) %.

And the “Growth Delay” value (A-549 lung; [9])?
The value was 6 days.

What about the Log10 cell kill (A-549 lung; [9]) of the same molecule?
The Log10 cell kill was 0.9.

What about the “T/C % (optimal test/control)” value (A-549 lung; initial tumor vol 60 mm^3, 4 mg/kg/day po Q1D × 9, day 21) of the same molecule?
Its value is 47 (21) %.

And the “Growth Delay” value (A-549 lung; [10])?
Its value is 5 days.

And the Log10 cell kill (A-549 lung; [10])?
The Log10 cell kill was 0.7.

And the “T/C % (optimal test/control)” value (A-549 lung; initial tumor vol 60 mm^3, 12 mg/kg/day iv Q1D × 9, day 21)?
Its value is 45 (21) %.

And the “Growth Delay” value (A-549 lung; [11])?
The value was 4 days.

What about the Log10 cell kill (A-549 lung; [11]) of the same molecule?
Its Log10 cell kill is 0.2.

And the “T/C % (optimal test/control)” value (A-549 lung; initial tumor vol 65 mm^3, 6 mg/kg/day ip Q1D × 9, day 32)?
The value was 62 (32) %.

And the “Growth Delay” value (A-549 lung; [12])?
The value was 8 days.

What about the Log10 cell kill (A-549 lung; [12]) of the same molecule?
The Log10 cell kill was 0.4.

And the “T/C % (optimal test/control)” value (A-549 lung; initial tumor vol 65 mm^3, 9 mg/kg/day ip Q1D × 9, day 32)?
The value was 26 (32) %.

And the “Combined Growth delay days” value (Panc-1 pancreatic; [13])?
Its value is 8 days.

What about the “Combined TGI %” value (Panc-1 pancreatic; [13]) of the same molecule?
Its value is 49%.

What about the “Combined log cell kill” value (Panc-1 pancreatic; [13]) of the same molecule?
The value was 0.2.

What about the “Combined Growth delay days” value (Panc-1 pancreatic; [14]) of the same molecule?
Its value is 19 days.

What about the “Combined TGI %” value (Panc-1 pancreatic; [14]) of the same molecule?
Its value is 60%.

What about the “Combined log cell kill” value (Panc-1 pancreatic; [14]) of the same molecule?
Its value is 0.5.

What about the “Alone Growth delay days” value (Panc-1 pancreatic; PX-866 iv 15 mg/kg Q3D × 3) of the same molecule?
Its value is 4 days.

What about the “Alone TGI %” value (Panc-1 pancreatic; PX-866 iv 15 mg/kg Q3D × 3) of the same molecule?
The value was 16%.

What about the “Alone log cell kill” value (Panc-1 pancreatic; PX-866 iv 15 mg/kg Q3D × 3) of the same molecule?
The value was 0.1.

And the “Alone Growth delay days” value (Panc-1 pancreatic; PX-866 po 5 mg/kg Q3D × 3)?
The value was 0 days.

And the “Alone TGI %” value (Panc-1 pancreatic; PX-866 po 5 mg/kg Q3D × 3)?
Its value is 14%.

And the “Alone log cell kill” value (Panc-1 pancreatic; PX-866 po 5 mg/kg Q3D × 3)?
Its value is 0.

And the “Combined Growth delay days” value (OvCaR-3 ovarian [4]; [15])?
The value was 20 days.

And the “Combined TGI %” value (OvCaR-3 ovarian [4]; [15])?
The value was 83%.

And the “Combined log cell kill” value (OvCaR-3 ovarian [4]; [15])?
The value was 1.5.

What about the “Combined Growth delay days” value (OvCaR-3 ovarian [4]; [16]) of the same molecule?
Its value is 34 days.

What about the “Combined TGI %” value (OvCaR-3 ovarian [4]; [16]) of the same molecule?
The value was 87%.

What about the “Combined log cell kill” value (OvCaR-3 ovarian [4]; [16]) of the same molecule?
Its value is 2.6.

And the “Alone Growth delay days” value (OvCaR-3 ovarian [4]; PX-866 iv 12 mg/kg Q2D × 5)?
The value was 12 days.

What about the “Alone TGI %” value (OvCaR-3 ovarian [4]; PX-866 iv 12 mg/kg Q2D × 5) of the same molecule?
The value was 58%.

And the “Alone log cell kill” value (OvCaR-3 ovarian [4]; PX-866 iv 12 mg/kg Q2D × 5)?
Its value is 0.9.

And the “Alone Growth delay days” value (OvCaR-3 ovarian [4]; PX-866 po 4 mg/kg Q2D × 5)?
The value was 11 days.

What about the “Alone TGI %” value (OvCaR-3 ovarian [4]; PX-866 po 4 mg/kg Q2D × 5) of the same molecule?
The value was 53%.

And the “Alone log cell kill” value (OvCaR-3 ovarian [4]; PX-866 po 4 mg/kg Q2D × 5)?
The value was 0.82.

And the “Combined Growth delay days” value (HT-29 colon [5]; [17])?
Its value is 6 days.

And the “Combined TGI %” value (HT-29 colon [5]; [17])?
Its value is 56%.

And the “Combined log cell kill” value (HT-29 colon [5]; [17])?
Its value is 0.5.

What about the “Combined Growth delay days” value (HT-29 colon [5]; [18]) of the same molecule?
The value was 8 days.

And the “Combined TGI %” value (HT-29 colon [5]; [18])?
Its value is 63%.

What about the “Combined log cell kill” value (HT-29 colon [5]; [18]) of the same molecule?
Its value is 0.7.

What about the “Alone Growth delay days” value (HT-29 colon [5]; PX-866 iv 10 mg/kg Q2D × 3) of the same molecule?
The value was 0 days.

And the “Alone TGI %” value (HT-29 colon [5]; PX-866 iv 10 mg/kg Q2D × 3)?
Its value is 11%.

What about the “Alone log cell kill” value (HT-29 colon [5]; PX-866 iv 10 mg/kg Q2D × 3) of the same molecule?
The value was 0.3.

What about the “Alone Growth delay days” value (HT-29 colon [5]; PX-866 po 2.5 mg/kg Q2D × 3) of the same molecule?
The value was 1 days.

And the “Alone TGI %” value (HT-29 colon [5]; PX-866 po 2.5 mg/kg Q2D × 3)?
Its value is 29%.

And the “Alone log cell kill” value (HT-29 colon [5]; PX-866 po 2.5 mg/kg Q2D × 3)?
The value was 0.1.

What about the IC50 (p110α/p85α) of the same molecule?
Its IC50 is 5.5 nM.

And the IC50 (p110β/p85α)?
The IC50 was over 300 nM.

What about the IC50 (p110δ/p85α) of the same molecule?
The IC50 was 2.7 nM.

What about the IC50 (p120γ) of the same molecule?
Its IC50 is 9 nM.

What about the IC50 [6] of the same molecule?
The IC50 was 25 nM.

And the “enhancement of the growth inhibition by gefitinib” value (A-549 cells)?
The value was “did not enhance”.

And the “duration of increase in plasma insulin levels” value [7]?
The value was “up to 5 hr”.

What about the “erythroid lineage CFU-GEMM, BFU-E or CFU-E” value (mouse bone marrow) of the same molecule?
The value was “no significant change”.

And the “myeloid CFU-GM” value (mouse bone marrow; ±S.E., n=4)?
Its value is 168±59 colonies per 60,000 bone marrow cells plated.

And the “plasma glucose AUC0-180 min” value ([8]; PX-866 3 mg/kg po QOD × 20, glucose 24 hours after the last dose)?
The value was 520 ± 14^a mg · min · ml^−1.

And the “plasma glucose AUC0-180 min” value ([8]; PX-866 10 mg/kg po single dose, glucose 4 hours later, no other drug)?
Its value is 533 ± 17^a mg · min · ml^−1.
